Experimental data as given in ChEMBL document CHEMBL5096190, “Recent advances of quinones as a privileged structure in drug discovery” (Eur J Med Chem, 2021).
Values after ≈ are worked out from the molar mass of the structure shown.

Tests used:
Arylsulfatase A [1] = molecular target: T1, Arylsulfatase A (Homo sapiens, UniProt P15289); test: Inhibition of ARSA (unknown origin) using 4-methylumbelliferyl sulfate (4-MUS) as a substrate by fluorescent assay
T1 sequence (P15289 whole entry): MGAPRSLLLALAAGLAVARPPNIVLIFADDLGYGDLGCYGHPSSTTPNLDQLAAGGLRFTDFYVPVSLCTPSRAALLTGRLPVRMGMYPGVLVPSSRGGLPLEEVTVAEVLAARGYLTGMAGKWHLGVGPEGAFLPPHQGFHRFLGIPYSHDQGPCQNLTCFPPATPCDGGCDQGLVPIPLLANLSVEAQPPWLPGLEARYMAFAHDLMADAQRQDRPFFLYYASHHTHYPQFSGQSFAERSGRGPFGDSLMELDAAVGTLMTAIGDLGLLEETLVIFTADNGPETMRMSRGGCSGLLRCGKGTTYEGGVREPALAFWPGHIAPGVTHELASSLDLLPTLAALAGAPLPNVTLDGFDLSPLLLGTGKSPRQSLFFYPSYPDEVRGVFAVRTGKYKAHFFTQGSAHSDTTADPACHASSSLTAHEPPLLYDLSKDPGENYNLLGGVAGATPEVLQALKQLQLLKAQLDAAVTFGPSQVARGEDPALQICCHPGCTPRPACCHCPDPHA

Arylsulfatase A [2] = molecular target: T1, Arylsulfatase A; test: Binding affinity to ARSA (unknown origin) assessed as dissociation constant by SPR analysis
GBM = test: Anticancer activity against human GBM cells assessed as cell growth inhibition incubated for 72 hrs; assay type: functional, cell-based
[3] = Inhibition of NFAT activity in human GBM cells; assay type: cell-based
U-87 MG = test: Cytotoxicity against human U87 cells assessed as reduction in cell viability measured after 72 hrs by MTT assay; assay type: functional, cell-based, U-87MG ATCC
SGC-7901 = test: Cytotoxicity against human SGC-7901 cells assessed as reduction in cell viability measured after 72 hrs by MTT assay; assay type: functional, cell-based; settings: SGC-7901, 72 h
MGC-803 = test: Cytotoxicity against human MGC-803 cells assessed as reduction in cell viability measured after 72 hrs by MTT assay; assay type: functional, cell-based; settings: MGC-803, 72 h
Enterococcus hirae = test: Antibacterial activity against Enterococcus hirae ATCC 10541 assessed as growth inhibition after 24 hrs by two-fold serial dilution method; assay type: functional
[4] = Inhibition of Hepatitis C virus NS3 helicase measured by fluorescence helicase assay; design: species or system Hepacivirus hominis
MIA PaCa-2 = test: Antitumor activity against human MIA PaCa-2 cells assessed as reduction in cell viability and incubated for 3 hrs by MTT assay; assay type: functional, cell-based; settings: MIA PaCa-2, 3 h
BXPC-3 = test: Antitumor activity against human BXPC-3 cells assessed as reduction in cell viability and incubated for 3 hrs by MTT assay; assay type: functional, cell-based; settings: BXPC-3, 3 h
PANC-1 = test: Antitumor activity against human PANC-1 cells assessed as reduction in cell viability and incubated for 3 hrs by MTT assay; assay type: functional, cell-based; settings: PANC-1, 3 h
Cholinesterase = Cholinesterase (Homo sapiens, UniProt P06276); test: Inhibition of human BuChE at 550 uM using butyrylthiocholine chloride as substrate by Ellman's method
MOLT-4 = test: Cytotoxicity against human MOLT-4 cells assessed as inhibition of cell growth incubated for 24 to 72 hrs by MTT assay; assay type: functional, cell-based

Chain of Cholinesterase (P06276 whole entry): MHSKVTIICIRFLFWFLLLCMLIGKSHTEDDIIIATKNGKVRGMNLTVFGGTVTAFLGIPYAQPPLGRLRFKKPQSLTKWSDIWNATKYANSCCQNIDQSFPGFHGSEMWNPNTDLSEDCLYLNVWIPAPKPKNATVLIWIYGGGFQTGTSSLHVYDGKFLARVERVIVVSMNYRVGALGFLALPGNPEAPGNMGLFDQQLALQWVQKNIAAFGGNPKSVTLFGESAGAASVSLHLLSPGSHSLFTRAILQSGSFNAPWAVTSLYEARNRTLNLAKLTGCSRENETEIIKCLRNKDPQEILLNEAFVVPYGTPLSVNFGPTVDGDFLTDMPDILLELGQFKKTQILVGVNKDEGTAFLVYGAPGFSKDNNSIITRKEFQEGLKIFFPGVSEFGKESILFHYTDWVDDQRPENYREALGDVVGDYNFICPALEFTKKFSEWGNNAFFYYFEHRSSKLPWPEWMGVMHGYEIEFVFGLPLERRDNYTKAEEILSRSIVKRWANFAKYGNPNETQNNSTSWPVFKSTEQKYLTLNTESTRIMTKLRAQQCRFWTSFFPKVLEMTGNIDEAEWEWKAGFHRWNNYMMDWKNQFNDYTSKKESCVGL

O=C1C=CC(=O)c2c1ccc1c2c(=O)oc2c3ccccc3ccc12
IC50 (Arylsulfatase A [1]): 13.2 µM
Kd (Arylsulfatase A [2]): 21 µM

Nc1c(-c2cccnc2)ncc2c1C(=O)c1c(-c3ccccn3)nn(-c3ccc(F)cc3F)c1C2=O
IC50 (GBM): 25 µM

O=C1C=C(Nc2ccc3cnccc3c2)c2ccccc2C1=O
IC50 [3]: 0.82 µM

CC(C)=CCC(OC(=O)CCC(=O)Nc1ccc(Oc2ccccc2)cc1)C1=CC(=O)c2c(O)ccc(O)c2C1=O (stereo not drawn)
IC50 (U-87 MG): 3.8 µM
IC50 (SGC-7901): 4.1 µM
IC50 (MGC-803): 4.1 µM

NC1=C(NC(=O)Cn2cc(CCBr)nn2)C(=O)c2ccccc2C1=O
MIC (Enterococcus hirae): 4 µg/mL (≈ 9.9 µM)

O=C(O)c1cc(O)c2c(c1)[C@H]([C@@H]1c3cccc(O)c3C(=O)c3c(O)cc(C(=O)O)cc31)c1cccc(O)c1C2=O
IC50 [4]: 0.8 µM

NC1=C(NC(=O)Cn2cc(CC3CCCCC3)nn2)C(=O)c2ccccc2C1=O
MIC (Enterococcus hirae): 4 µg/mL (≈ 10.2 µM)

O=C1c2c(O)ccc(O)c2C(=O)c2c(O)ccc(O)c21
IC50 [4]: 6 µM

CC(=O)c1ccccc1NC1=CC(=O)c2ncncc2C1=O
IC50 (MIA PaCa-2): 1.9 µM
IC50 (BXPC-3): 2.7 µM
IC50 (PANC-1): 2.2 µM

CC1=C(NC2CCN(Cc3ccccc3)CC2)C(=O)c2ccccc2C1=O
IC50 (Cholinesterase): 0.0957 µM

Nc1c(-c2ccccc2)ncc2c1C(=O)c1c(-c3ccccn3)nn(-c3ccc(F)cc3F)c1C2=O
IC50 (GBM): 25 µM

C[C@@]12CCC(=O)c3coc(c31)C(=O)c1cc3c(cc12)C(=O)C=CC3=O [HELENAQUINONE]
IC50 (MOLT-4): 1.44 µM

Cc1cc(O)c2c(=O)c3c(O)cc(O)c4c5c(O)cc(O)c6c(=O)c7c(O)cc(C)c8c1c2c(c34)c(c78)c65 [HYPERICIN]
IC50 [4]: 3 µM
